From patent publication EP2241555A1, “New RAC1 inhibitors as potential pharmacological agents for heart failure treatment” (UNIVERSITA' DEGLI STUDI DI MILANO, priority 2009, dated 2010)
Where two headings read alike, the source gives them in different places.

What was measured:
[1] = target: T1, Rac1 (Homo sapiens, UniProt P63000); assay: G-LISA assay of intracellular Rac1-GTP in PDGF-BB stimulated human smooth muscle cells; type: cell-based; conditions: for remaining activity at 50 µM: Concentration 50 µm, 4 hours incubation, then PDGF-BB 10 ng/ml, Rac1-GTP detected relative to control (100), lower = more inhibition, read-out: Rac1 inhibitory activity (% vs control); for inhibitory action on Rac1 activity: G-LISA, 50 µM, statement in words
T1 construct: endogenous in cells; host or cells: human cultured smooth muscle cells, stimulated with PDGF-BB
Excerpt: The intracellular amount of Rac1-GTP has been determined using the GLISA™ assay (Cytoskeleton, Inc). The GLISA™ assay uses a 96-well plate coated with RBD domain of Rac1-family effector protein PAK1. […] A significant inhibition on Rac1 activity should decrease the intracellular levels of Rac1-GTP and therefore reduce the percentage of Rac1-GTP detected compared to control untreated cells.

[2] = target: T1, Rac1; assay: Classic pull down assay of Rac1-GTP in human cells; type: cell-based; conditions: 50 and 100 µM; Figure 2
Procedure: Thus, a classic pull down assay was also performed in human cells incubated with 50 and 100 µM concentration of CWB024/02054

[3] = system: HL-1 cells; assay: Apoptosis of ischemic HL-1 cardiomyocytes (TUNEL assay, flow cytometer); type: cell-based, mouse; conditions: 100 µM; for Relative rate of apoptosis normalised to control [%]: 8 h ischemia (glucose deficient medium + hydrogen peroxide), 8h Ischemia alone 701.6, 8h Control 100
Procedure: To establish a cardiomyocytes based apoptosis assay, which mimics the post-ischemic damage observed after myocardial infarction, we have utilized a cardiac muscle cell line, HL-1 cells, derived from the AT-1 mouse atrial cardiomyocyte tumor lineage. The HL-1 cells were incubated in glucose deficient medium in the presence of hydrogen peroxide and either in presence or absence of compounds of the invention Apoptosis rate of ischemic HL-1 cells was normalised to the apoptosis rate of the 8h control cells under non-ischemic conditions, thus incubated with normal concentration of glucose in the absence of hydrogen peroxide. Both non-ischemic and ischemic HL-1 cultures were harvested after 8 hours. […] The apoptotic rates were then evaluated by TUNEL assay, a method for detecting DNA strand breaks in apoptotic cells by flow cytometer The solvent of the compounds, i.e DMSO, has no influence on the apoptosis rate. […] Effect of newly synthesized compounds with Rac1 inhibitory activity on apoptosis rate in HL-1 cells normalized to control (TUNEL-assay) The data are representative of two experiments.

[4] = system: HepG2 cells; assay: Resazurine cytotoxicity assay (metabolic activity), HepG2; type: cell-based, human; conditions: for MVC / EC50: HepG2, 24 h; for MVC: maximal viability concentration; for Cytotoxicity-Classification: HepG2, 24 h exposure; for EC50: Homo sapiens, metabolic activity, read-out: EC50
Procedure: (§1) For a pre-screening of the compounds they were first tested in human hepatocellular carcinoma cells (HepG2 cells)for 24 h and to gain further information about the cytotoxic potential more specific target tissues like the mouse cardiomyocytes HL-1 and primary rat cardiomyocytes were used additionally. […] The toxicity classification has been determined by using drugs currently utilized in clinic with known toxicity profile

[5] = system: HL-1; assay: Resazurine cytotoxicity assay (metabolic activity), HL-1; type: cell-based, mouse; conditions: for MVC / EC50: HL-1, 24 h; for MVC: maximal viability concentration; for Cytotoxicity-Classification: HL-1, 24 h exposure; for EC50: Mus musculus, metabolic activity
Procedure: as §1

[6] = system: primary rat cardiomyocytes; assay: Resazurine cytotoxicity assay (metabolic activity), primary rat cardiomyocytes; type: cell-based; conditions: for MVC / EC50: 24 h; for MVC: maximal viability concentration; for Cytotoxicity-Classification: 24 h exposure; for EC50: Cardiomyocyte, metabolic activity
Procedure: as §1

[7] = PAMPA (Parallel Artificial Membrane Permeability Assay); type: in vitro ADME; conditions: start concentration 250 µM, diffusion period 16 h
Procedure: (§2) The permeation characteristics of the Rac1 inhibitors were determined first in the artificial system PAMPA (Parallel Artificial Membrane Permeability Assay) which uses a membrane covered with a lipid to simulate the lipid bilayer of various cell types, including intestinal epithelium and second in vitro across Caco2, a human colon carcinoma cell line seeded as monolayers onto polycarbonate membranes. The PAMPA is able to predict the ability of a compound to permeate by a passive transcellular transport through an artificial lipid layer assembled on a membrane and also allows a classification into low (flux <20%), medium (20%≤ flux ≤70%), and high (flux >70%) absorbing substances. The Caco2 assay provides a well-established in vitro model to predict the human intestinal absorption.
The flux rate of the compounds of the invention and the reference NSC23766 was measured from a donor compartment to an acceptor compartment across the lipid layer at a start concentration of 250 µM over a diffusion period of 16 h.

[8] = Caco2 monolayer permeation; type: in vitro ADME, human; conditions: human, start concentration 50 µM; for Papp at 90 min, 50 µM: Caco-2, Caco2 monolayers
Procedure: as §2

[9] = system: Caco2; assay: Caco2 monolayer permeation; type: in vitro ADME, human; conditions: Caco2 monolayers, 90 min, start concentration 50 µM
Procedure: as §2

[10] = Substrate depletion in human liver microsomes and in vitro - in vivo extrapolation; type: in vitro ADME; conditions: for CLh: hepatic clearance; for CLh / CLint / CLtot: extrapolated to human from substrate depletion (1 µM, 60 min); for half-life at 1 µM: human, human liver microsomes; for CLint: intrinsic clearance (whole liver); for CLtot: total (systemic) clearance
Procedure: The remaining peak areas after 60 minutes incubation was also determined after incubation with increasing concentrations of compounds CWB021/01039 and CWB024/02054. […] The disappearances for both study compounds were also clearly cofactor dependent and thus metabolism related Calculations of pharmacokinetic (PK) parameters on the basis of substrate depletion for both study compounds (1 µM, 60 min time point) in human liver microsomes are shown in Table 6. Table 6. Kinetic in vitro - in vivo extrapolations of study compound clearances and half-lifes in human, wherein: intrinsic clearance (whole liver) = CLint; hepatic clearance = CLH; total (systemic) clearance = CLtotal; half-life = t1/2.

[11] = target: CYP2D6 (Homo sapiens, UniProt P10635); assay: Inhibition of CYP2D6 activity; type: biochemical; conditions: read-out: CYP2D6 activity inhibited by
Sequence of CYP2D6 (P10635 whole entry): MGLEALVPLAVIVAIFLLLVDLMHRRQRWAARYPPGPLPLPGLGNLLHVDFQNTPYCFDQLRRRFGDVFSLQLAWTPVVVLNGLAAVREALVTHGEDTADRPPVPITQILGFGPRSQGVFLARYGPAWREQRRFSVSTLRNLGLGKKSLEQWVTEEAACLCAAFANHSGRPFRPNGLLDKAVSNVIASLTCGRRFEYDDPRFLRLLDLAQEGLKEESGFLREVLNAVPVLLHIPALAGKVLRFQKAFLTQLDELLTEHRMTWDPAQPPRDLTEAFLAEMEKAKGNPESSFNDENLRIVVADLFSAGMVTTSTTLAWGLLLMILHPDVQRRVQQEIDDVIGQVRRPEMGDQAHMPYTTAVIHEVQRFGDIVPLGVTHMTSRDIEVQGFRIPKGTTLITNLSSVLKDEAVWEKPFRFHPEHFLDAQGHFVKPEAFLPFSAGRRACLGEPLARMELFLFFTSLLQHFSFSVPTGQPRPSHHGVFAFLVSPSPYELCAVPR

[12] = tissue homogenate, 60 min, 10 µM
Procedure: (§3) The basic incubation mixture with total volume of 500 µl consisted of the following components. 100 µl liver homogenate, compound in DMSO (dimethyl sulfoxide) and 1 mM NADPH (reduced nicotinamide adenine dinucleotide phosphate), 1 mM UDPGA (uridine 5'-diphosphoglucuronic acid), 1 mM PAPS (3'-phosphoadenosine-5'-phosphosulfate) and 1 mM GSH (glutathione). The substrate concentration used was 10 µM. Two parallel incubations, one with cofactors and one without, were made. Final DMSO concentration in the incubation was 1 µM. […] Reaction was started by addition of a cofactor mixture and stopped by adding 250 µl of ice-cold acetonitrile.

[13] = system: major drug metabolising CYPs (including CYP2C19, CYP2D6, CYP3A4); assay: Inhibition of major drug metabolising CYP activities
Excerpt: The probe metabolites as in experimental For CYP2C19, a=omeprazole demethylation and b=omeprazole 5-hydroxylation; for CYP3A4, a=omeprazole 3-hydroxylation, b= omeprazole sulfonation, c=testosterone 6β-hydroxylation and d= midazolam 1'-hydroxylation.

[14] = Metabolic stability and metabolite identification in liver homogenates with cofactors (LC/MS); conditions: liver homogenate with cofactors, 10 µM substrate, 60 min
Procedure: as §3

[15] = 0.1 µM initial substrate concentration
[16] = 1 µM initial substrate concentration
[17] = 10 µM initial substrate concentration

Row | SMILES | remaining activity at 50 µM [1] | inhibitory action on Rac1 activity [1] | Relative rate of apoptosis normalised to control [%] [3] | MVC [4] | Cytotoxicity-Classification [4] | EC50 [4] | MVC [5] | Cytotoxicity-Classification [5] | EC50 [5] | MVC [6] | Cytotoxicity-Classification [6] | EC50 [6] | PAMPA classification [7] | PAMPA flux [%] ± SD [7] | Papp at 90 min, 50 µM [8] | Caco2 Classification [9] | remaining peak area after 60 minutes incubation [10, 15] | remaining peak area after 60 minutes incubation [10, 16] | remaining peak area after 60 minutes incubation [10, 17] | CLh [10] | other results
1 | CCN(CC)CCCC(C)Nc1nccc(Nc2ccc3[nH]ccc3c2)n1 (stereo not shown) [CWB024/02054, N2-(4-Diethylamino-1-methyl-butyl)-N4-(1H-indol-5-yl)-pyrimidine-2,4-diamine] | 58.3% | significant end efficient inhibitory action | 319.4% | 7.8 µM | ++ (10 µM < EC50 ≤ 100 µM, medium (++)) | 33 µM | 7.8 µM | ++ (10 µM < EC50 ≤ 100 µM, medium (++)) | 56 µM | 1.9 µM | ++ (10 µM < EC50 ≤ 100 µM, medium (++)) | 17 µM | low (low (flux <20%)) | 6±2% | 32.1 ± 12.4 ×10⁻⁶ cm/s | high (compounds with a Papp >10 are predicted to be well absorbed (70 - 100%)) | 76% | 87% | 86% | 10.63 L/h | reduced the intracellular content of Rac1-GTP [2]: over 90%; reduction of relative apoptosis ([3]; versus 8 h ischemia): approximately 50%; half-life at 1 µM [10]: 10.3 h; CLint [10]: 0.2 L/min; CLtot [10]: 10.81 L/h; inhibition at 10 µM [11]: 30%; remaining LC/MS peak area (relative to 0 min incubation samples, %) [12]: about 91%; IC50 [13]: > 10 µM
2 | CCN(CC)CCCC(C)Nc1nccc(Nc2ccc3[nH]c(C)cc3c2)n1 (stereo not shown) [CWB021/01039, N2-(4-Diethylamino-1-methyl-butyl)-N4-(2-methyl-1H-indol-5-yl)-pyrimidine-2,4-diamine] | 81.1% | significant end efficient inhibitory action | 511.6% | 7.8 µM | ++ (10 µM < EC50 ≤ 100 µM, medium (++)) | 21 µM | 31.2 µM | ++ (10 µM < EC50 ≤ 100 µM, medium (++)) | 24 µM | 31.3 µM | ++ (10 µM < EC50 ≤ 100 µM, medium (++)) | 13 µM | low (low (flux <20%)) | 5±1% | 17.1 ± 12.5 ×10⁻⁶ cm/s | high (compounds with a Papp >10 are predicted to be well absorbed (70 - 100%)) | 69% | 81% | 95% | 15.14 L/h | half-life at 1 µM [10]: 7.3 h; CLint [10]: 0.31 L/min; CLtot [10]: 15.32 L/h; inhibition at 10 µM [11]: 35%; remaining LC/MS peak area (relative to 0 min incubation samples, %) [12]: 33-41%; IC50 [13]: > 10 µM
3 | CCN(CC)CCCC(C)Nc1nccc(Nc2cnc3ccccc3c2)n1 (stereo not shown) [CWB022/02052, N2-(4-Diethylamino-1-methyl-butyl)-N4-quinolin-3-yl-pyrimidine-2.4-diamine] | – | significant end efficient inhibitory action | 607.8% | 7.8 µM | ++ (10 µM < EC50 ≤ 100 µM, medium (++)) | 32 µM | 31.2 µM | ++ (10 µM < EC50 ≤ 100 µM, medium (++)) | 60 µM | 7.8 µM | ++ (10 µM < EC50 ≤ 100 µM, medium (++)) | 15 µM | medium (medium (20%≤ flux ≤70%)) | 34±4% | – | medium (compounds with Papp between 1 and 10 are moderately absorbed (20 - 70%)) | – | – | – | – | Papp at 1.5 h, 50 µM ([8]; Caco-2, Caco2 monolayers, 90 min): 8.9 ± 2.7 ×10⁻⁶ cm/s; remaining LC/MS peak area (relative to 0 min incubation samples, %) [14]: 5%
